In PMC10878397, “Development of Potent Dual BET/HDAC Inhibitors via Pharmacophore Merging and Structure-Guided Optimization” (ACS Chemical Biology, 2024):
“And” between values parts separate entries of the source, which are not always exact repeats. Equal entries are not always repeated. Where two headings read alike, the source gives them in different places.

Assays:
HCC2429 cells = assay: CellTiter-Glo cell viability assay; type: cell-based; details: Homo sapiens, HCC2429, 72 h; treatment for 3 days
Method: (§1) PDAC cell line PaTu8988T was obtained from ATCC and cultured in Dulbecco’s modified Eagle’s medium (DMEM) containing 10% FBS, 25 mM glucose, […], 1 mM sodium pyruvate, and 1% penicillin–streptomycin. Nut midline carcinoma cell line HCC2429 was kindly provided by Lead Discovery Center GmbH (Dortmund, Germany) and was cultured in RPMI1640 medium containing 10% FBS, 2 mM L-glutamine, and 1% penicillin–streptomycin. Cell line PaTu8988T was authenticated using the Multiplex human Cell line Authentication Test (MCA) by Multiplexion GmbH, and cell line HCC2429 was authenticated using short tandem repeat (STR) profiling.
(§2) The assays were performed using Promega’s CellTiter-Glo Luminescent Cell Viability Assay kit (Cat. #G7571). First, compounds dissolved in DMSO were printed in 96-well plates (Corning) by using a Tecan D300e digital dispenser. Then, cells were seeded into the compound-printed plates using a Thermo Multidrop reagent dispenser. 72 h later, one volume of diluted CellTiter-Glo reagent (1:4 dilution with PBS) was added to individual wells by using the Thermo Multidrop reagent dispenser again. Plates were shaken for 2 min and incubated for 10 min in the dark. Luminescent signals were read by using a Tecan Spark Multimode Microplate Reader. The values were normalized to the DMSO control wells and presented as a percentage of cell viability. Dose–response curves were drawn with GraphPad Prism 8.

PaTu8988T cells = assay: CellTiter-Glo cell viability assay; type: cell-based; details: Homo sapiens, PaTu 8988t, 72 h; treatment for 3 days
Method: as §1, §2

BRD4 BD1 [1] = biological target: T1, BRD4 BD1 (Homo sapiens, UniProt O60885); assay: NanoBRET target engagement assay (HEK293T); type: cell-based; set-up: BRD4 bromodomains and full-length HDACs were obtained as plasmids cloned in-frame with a terminal NanoLuc fusion; host or cells: HEK293T
Method: (§3) The assay was performed as described previously.[17],[59] In brief, BRD4 bromodomains and full-length HDACs were obtained as plasmids cloned in-frame with a terminal NanoLuc fusion (Promega). Plasmids were transfected into HEK293T cells using FuGENE HD (Promega, E2312), and proteins were allowed to express for 20 h. Serially diluted inhibitor and the corresponding NanoBRET Tracer (Promega) at a concentration determined previously as the tracer KD, app were pipetted into white 384-well plates (Greiner #781207) for BRD assays or white 96-well plates (Corning #3600) for HDAC using an Echo acoustic dispenser (Labcyte). The corresponding protein-transfected cells were added and reseeded at a density of 2 × 10^5 cells/mL after trypsinization and resuspended in Opti-MEM without phenol red (Life Technologies). The system was allowed to equilibrate for 2 h at 37 °C/5% CO2 prior to BRET measurements. To measure BRET, NanoBRET NanoGlo substrate + Extracellular NanoLuc Inhibitor (Promega, N2540) was added as per the manufacturer’s protocol, and filtered luminescence was measured on a PHERAstar plate reader (BMG Labtech) equipped with a luminescence filter pair (450 nm BP filter (donor) and 610 nm LP filter (acceptor)). For lysed-mode NanoBRET experiments, digitonin (Promega, #G9441) was added as per the manufacturer’s instructions to a final concentration of […].

BRD4 BD2 [2] = biological target: T2, BRD4 BD2 (Homo sapiens, UniProt O60885); assay: NanoBRET target engagement assay (HEK293T); type: cell-based; set-up: BRD4 bromodomains and full-length HDACs were obtained as plasmids cloned in-frame with a terminal NanoLuc fusion; host or cells: HEK293T
Method: as §3

BRD4 BD1 [3] = biological target: T1, BRD4 BD1; assay: DSF thermal shift assay; type: binding; set-up: purchased in-house (SGC Frankfurt recombinant bromodomain DSF panel)
Method: (§4) The effects of inhibitor binding on the apparent melting temperature of recombinant bromodomains were determined by DSF in a 96-well plate (Starlab) at a protein concentration of 2 μM with 10 μΜ compound in buffer containing 25 mM HEPES, pH 7.5, 150 mM NaCl, and 0.5 mM TCEP. […] Protein unfolding profiles were recorded using an MX3005P real-time qPCR instrument (Agilent; excitation/emission filters = 492/610 nm) while increasing the temperature from 25 to 95 °C at a heating rate of 3 °C/min. Tm values were calculated after fitting the fluorescence curves to the Boltzmann equation. Differences in melting temperature upon compound binding are given as ΔTm = Tm (protein with inhibitor) – Tm (protein with DMSO control). Measurements were performed in triplicates.

BRD4 BD2 [4] = biological target: T2, BRD4 BD2; assay: DSF thermal shift assay; type: binding; set-up: purchased in-house (SGC Frankfurt recombinant bromodomain DSF panel)
Method: as §4

HDAC1 = HDAC1 (Homo sapiens, UniProt Q13547); assay: NanoBRET target engagement assay (HEK293T); type: cell-based; set-up: BRD4 bromodomains and full-length HDACs were obtained as plasmids cloned in-frame with a terminal NanoLuc fusion; host or cells: HEK293T
Method: (§5) The assay was performed as described previously.[17],[59] In brief, BRD4 bromodomains and full-length HDACs were obtained as plasmids cloned in-frame with a terminal NanoLuc fusion (Promega). Plasmids were transfected into HEK293T cells using FuGENE HD (Promega, E2312), and proteins were allowed to express for 20 h. […] The corresponding protein-transfected cells were added and reseeded at a density of 2 × 10^5 cells/mL after trypsinization and resuspended in Opti-MEM without phenol red (Life Technologies). The system was allowed to equilibrate for 2 h at 37 °C/5% CO2 prior to BRET measurements. […] For lysed-mode NanoBRET experiments, digitonin (Promega, #G9441) was added as per the manufacturer’s instructions to a final concentration of […].

HDAC2 = HDAC2 (Homo sapiens, UniProt Q92769); assay: NanoBRET target engagement assay (HEK293T); type: cell-based; set-up: BRD4 bromodomains and full-length HDACs were obtained as plasmids cloned in-frame with a terminal NanoLuc fusion; host or cells: HEK293T
Method: as §5

BRD4 bromodomains = BRD4 bromodomains (Homo sapiens, UniProt O60885); assay: NanoBRET target engagement assay, both bromodomains; type: cell-based
Method: as §3

HDAC3 = HDAC3 (Homo sapiens, UniProt O15379); assay: NanoBRET target engagement assay (HEK293T); type: cell-based; set-up: BRD4 bromodomains and full-length HDACs were obtained as plasmids cloned in-frame with a terminal NanoLuc fusion; host or cells: HEK293T; details: intact cells
Method: as §5

[5] = set-up: method as in PMID 30649740; details: cited from earlier work
[6] = 10 μM compound, 2 μM protein, read-out: DSF ΔTm BRD4 BD1
[7] = 10 μM compound, 2 μM protein, read-out: DSF ΔTm BRD4 BD2
[8] = read-out: DSF ΔTm BRD4 BD1, 10 μM compound, 2 μM protein
[9] = read-out: DSF ΔTm BRD4 BD2, 10 μM compound, 2 μM protein

Chain of HDAC2 (Q92769 whole entry, the tested form may be a part): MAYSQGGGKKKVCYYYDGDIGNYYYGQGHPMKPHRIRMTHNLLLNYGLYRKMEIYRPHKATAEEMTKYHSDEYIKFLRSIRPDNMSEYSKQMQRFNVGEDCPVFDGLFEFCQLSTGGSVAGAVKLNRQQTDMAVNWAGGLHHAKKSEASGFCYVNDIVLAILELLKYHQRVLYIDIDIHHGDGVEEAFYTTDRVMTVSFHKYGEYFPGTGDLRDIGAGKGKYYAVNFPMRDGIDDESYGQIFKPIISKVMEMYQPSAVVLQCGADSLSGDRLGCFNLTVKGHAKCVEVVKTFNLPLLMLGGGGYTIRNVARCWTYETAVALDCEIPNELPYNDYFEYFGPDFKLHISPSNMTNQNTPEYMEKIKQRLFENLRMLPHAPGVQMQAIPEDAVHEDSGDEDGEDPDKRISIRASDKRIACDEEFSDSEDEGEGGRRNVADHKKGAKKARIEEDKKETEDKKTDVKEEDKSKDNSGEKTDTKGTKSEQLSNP
Chain of HDAC1 (Q13547 whole entry, the tested form may be a part): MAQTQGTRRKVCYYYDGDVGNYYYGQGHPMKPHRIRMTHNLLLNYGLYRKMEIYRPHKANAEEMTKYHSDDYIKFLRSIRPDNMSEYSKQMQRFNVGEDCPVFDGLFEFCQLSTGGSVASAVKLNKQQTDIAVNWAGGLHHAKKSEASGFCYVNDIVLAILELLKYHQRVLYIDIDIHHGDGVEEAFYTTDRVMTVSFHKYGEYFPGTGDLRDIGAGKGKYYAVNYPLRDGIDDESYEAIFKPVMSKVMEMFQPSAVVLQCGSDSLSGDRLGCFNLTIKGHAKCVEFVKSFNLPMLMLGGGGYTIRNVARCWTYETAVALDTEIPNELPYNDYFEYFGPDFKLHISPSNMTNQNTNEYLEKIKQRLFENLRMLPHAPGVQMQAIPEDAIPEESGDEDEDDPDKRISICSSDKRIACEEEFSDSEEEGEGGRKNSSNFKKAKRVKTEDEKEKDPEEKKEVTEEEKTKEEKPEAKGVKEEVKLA
Chain of HDAC3 (O15379 whole entry, the tested form may be a part): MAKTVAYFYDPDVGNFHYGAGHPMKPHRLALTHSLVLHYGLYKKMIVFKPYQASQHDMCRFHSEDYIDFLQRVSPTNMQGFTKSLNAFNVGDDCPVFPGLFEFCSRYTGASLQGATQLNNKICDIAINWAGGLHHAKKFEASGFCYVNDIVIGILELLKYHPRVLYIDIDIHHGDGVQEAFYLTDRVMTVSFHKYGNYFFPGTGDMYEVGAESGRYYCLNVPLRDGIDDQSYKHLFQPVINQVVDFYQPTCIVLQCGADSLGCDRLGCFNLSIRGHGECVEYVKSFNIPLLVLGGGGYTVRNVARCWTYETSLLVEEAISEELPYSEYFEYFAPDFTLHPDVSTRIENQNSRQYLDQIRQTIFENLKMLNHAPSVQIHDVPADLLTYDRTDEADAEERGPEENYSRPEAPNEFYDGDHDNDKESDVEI

Compound | IC50 (HCC2429 cells) | ΔTm at 10 µM (BRD4 BD1 [3]; [6]) | ΔTm at 10 µM (BRD4 BD2 [4]; [7]) | EC50 (HDAC1; intact cells) | EC50 (HDAC1; lysed cells (digitonin)) | EC50 (HDAC2; intact cells) | EC50 (BRD4 BD1 [1]; intact cells) | EC50 (BRD4 BD2 [2]; intact cells) | IC50 (PaTu8988T cells) | further results
Cn1cc(-c2ccc3cc(C(=O)Nc4ccccc4N)ccc3n2)c2cc[nH]c2c1=O [NB437] | – | – | – | 23200 nM and 23000 nM | 11000 ± 1800 nM | 24800 nM and 25000 nM | 180 ± 30 nM | 200 ± 30 nM | – | EC50 (BRD4 bromodomains; BD1 and BD2, intact cells, read-out: NanoBRET EC50 BRD4 bromodomains): 100 to 400 nM; DSF ΔTm BRD4 BD1 (BRD4 BD1 [3]; 10 μM compound, 2 μM protein): 4.0 ± 0.2 K; ΔTm at 10 µM (BRD4 BD1 [3]; [8]): 4 to 5 °C; DSF ΔTm BRD4 BD2 (BRD4 BD2 [4]; 10 μM compound, 2 μM protein): 4.8 ± 0.2 K; ΔTm at 10 µM (BRD4 BD2 [4]; [9]): 4 to 5 °C
COc1cc(C(=O)Nc2ccccc2N)ccc1-c1cn(C)c(=O)c2[nH]ccc12 [NB470] | – | 3.8 ± 0.1 °C | 4.3 ± 0.3 °C | > 50000 nM | > 50000 nM | > 50000 nM | 390 ± 60 nM | 230 ± 70 nM | – | –
Cn1cc(C(=O)Nc2ccc(C(=O)Nc3ccccc3N)cc2)c2cc[nH]c2c1=O [NB480] | – | 1.9 ± 0.2 °C | 1.9 ± 0.3 °C | 2300 ± 600 nM | – | 3700 ± 2400 nM | 2600 ± 100 nM | 2900 ± 200 nM | – | –
Cn1cc(-c2ccc(C(=O)Nc3ccccc3N)nn2)c2cc[nH]c2c1=O [NB501] | 540 ± 60 nM | – | – | 16800 ± 6700 nM | – | 4600 ± 600 nM | 390 ± 20 nM | 290 ± 120 nM | 8500 ± 1300 nM | fold reduced binding to BRD4 compared with NB500 (BRD4 bromodomains; NanoBRET): about 2 fold; ΔTm at 10 µM (BRD4 BD1 [3]; [8]): 2.9 ± 0.3 °C; ΔTm at 10 µM (BRD4 BD2 [4]; [9]): 3.6 ± 0.2 °C
Cn1cc(-c2ccc(C(=O)Nc3ccc(F)cc3N)nc2)c2cc[nH]c2c1=O [NB507] | 240 ± 20 nM | – | – | 36300 nM and 36000 nM | 8200 ± 2100 nM | 14200 ± 4500 nM | 340 ± 100 nM | 100 ± 10 nM | 5200 ± 900 nM | EC50 (HDAC3): > 50000 nM
Cn1cc(-c2ccc(C(=O)Nc3cc(-c4ccco4)ccc3N)nc2)c2cc[nH]c2c1=O [NB513] | 320 ± 40 nM | – | – | 1300 ± 1000 nM | – | 2900 ± 1700 nM | 370 ± 50 nM | 310 ± 50 nM | 2600 ± 300 nM | –
Cn1cc(-c2ccc(C(=O)Nc3cc(-c4cccs4)ccc3N)nc2)c2cc[nH]c2c1=O [NB514] | 550 ± 60 nM | – | – | 140 ± 50 nM | 22 ± 8 nM | 58 nM and 60 nM | 290 ± 50 nM | 180 ± 40 nM | 4100 ± 700 nM | EC50 (HDAC3): 11400 ± 6900 nM
O=C(CCCCCCC(=O)Nc1ccccc1)NO [SAHA, suberoyl anilide hydroxamic acid] | – | – | – | – | – | – | – | – | – | metabolic half-life [5]: 2 h

The next lines start with results.

IC50 (HCC2429 cells) | ΔTm at 10 µM (BRD4 BD1 [3]; [6]) | ΔTm at 10 µM (BRD4 BD2 [4]; [7]) | EC50 (HDAC1; intact cells) | EC50 (HDAC1; lysed cells (digitonin)) | EC50 (HDAC2; intact cells) | EC50 (BRD4 BD1 [1]; intact cells) | EC50 (BRD4 BD2 [2]; intact cells) | Compound | IC50 (PaTu8988T cells) | further results
1800 ± 200 nM | – | – | – | – | – | – | – | CC(=O)Nc1ccc(C(=O)Nc2ccccc2N)cc1 [CI-994, reference compound] | 13100 ± 2400 nM | EC50 (BRD4 BD1 [1]; lysed cells (digitonin)): > 50000 nM; EC50 (BRD4 BD2 [2]; lysed cells (digitonin)): > 50000 nM
810 ± 150 nM | 4 ± 0.4 °C | ~3 °C | 18800 ± 1000 nM | > 50000 nM | > 50000 nM | – | – | Cc1cc(/N=N/c2ccc(S(=O)(=O)Nc3ccccn3)cc2)c(N)cc1O [MS436, reference compound] | 10400 ± 1200 nM | DSF ΔTm BRD4 BD2 (BRD4 BD2 [4]; 10 μM compound, 2 μM protein): 2.9 ± 0.1 K; EC50 (HDAC2; lysed cells (digitonin)): > 50000 nM
– | 5.3 °C | ~3 °C | 10800 ± 5100 nM | – | > 50000 nM | – | – | Cc1cc(/N=N/c2ccc(C(=O)Nc3ccccc3N)cc2)c(N)cc1O [NB161] | – | DSF ΔTm BRD4 BD1 (BRD4 BD1 [3]; 10 μM compound, 2 μM protein): 5.2 ± 0.3 K
– | 7.5 ± 0.2 °C | 5.2 ± 0.2 °C | 2100 ± 700 nM | – | 1300 ± 900 nM | 190 ± 30 nM | 50 ± 10 nM | Cc1cc(/N=N/c2ccc(C(=O)Nc3ccccc3N)cc2)c2cc[nH]c2c1O [NB390] | – | –
– | 0.9 ± 0.2 °C | 1.7 ± 0.3 °C | 34400 ± 5800 nM | 32200 ± 7100 nM | 39700 ± 9000 nM | 3700 ± 500 nM | 2100 ± 400 nM | Cn1cc(-c2ccc(C(=O)Nc3ccccc3N)cc2N)c2cc[nH]c2c1=O [NB469] | – | –
